Reference: patent US20110182850A1, “ORGANIC COMPOUNDS AND THEIR USES” (priority 2009, published 2011)
Where two headings read alike, the source gives them in different places.

Biological target: T1, HCV NS3-4A serine protease (full-length NS3-4A protein, genotype 1a, strain HCV-1) (Hepatitis C virus genotype 1a, UniProt P26664)
T1 construct: using the full-length NS3-4A protein (genotype 1a, strain HCV-1)
Assay: HCV NS3-4A protease assay
Format: biochemical
Method: The inhibitory activity of certain compounds of Table A against HCV NS3-4A serine protease is determined in a homogenous assay using the full-length NS3-4A protein (genotype 1a, strain HCV-1) and a commercially available internally-quenched fluorogenic peptide substrate as described by Taliani, M., et al. 1996 Anal. Biochem. 240:60-67, which is incorporated by reference in its entirety.

T1 sequence (P26664 1658-1711): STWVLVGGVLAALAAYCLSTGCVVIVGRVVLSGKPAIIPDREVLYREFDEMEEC
T1 sequence (P26664 1027-1657): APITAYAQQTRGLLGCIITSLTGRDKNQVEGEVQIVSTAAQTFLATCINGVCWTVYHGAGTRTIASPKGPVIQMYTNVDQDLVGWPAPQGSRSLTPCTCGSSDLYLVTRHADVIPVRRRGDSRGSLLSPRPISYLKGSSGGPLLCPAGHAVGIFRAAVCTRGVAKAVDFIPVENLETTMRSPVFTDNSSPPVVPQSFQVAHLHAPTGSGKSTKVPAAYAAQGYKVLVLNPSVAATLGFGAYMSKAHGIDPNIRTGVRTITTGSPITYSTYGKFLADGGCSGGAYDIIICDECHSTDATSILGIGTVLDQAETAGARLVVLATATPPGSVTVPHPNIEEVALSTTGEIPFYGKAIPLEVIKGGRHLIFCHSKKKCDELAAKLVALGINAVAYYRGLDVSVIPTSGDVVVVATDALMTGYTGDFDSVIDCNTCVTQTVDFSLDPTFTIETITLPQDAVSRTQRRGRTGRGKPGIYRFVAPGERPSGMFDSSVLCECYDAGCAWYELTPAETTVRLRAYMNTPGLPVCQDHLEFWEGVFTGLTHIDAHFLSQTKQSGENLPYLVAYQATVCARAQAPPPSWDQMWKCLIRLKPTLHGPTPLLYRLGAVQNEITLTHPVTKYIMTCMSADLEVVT

Row | IC50 (read-out: Protease IC50) [nM] | SMILES | IC50 (Protease IC50) [nM]
1 |  | CC(C)N1CCCCC1C(=O)N[C@H](C(=O)N[C@H](C(=O)N1C[C@]2(C[C@H]1C(=O)N[C@]1(C(=O)NS(=O)(=O)C3CC3)CC=CCC1)C(C)(C)C21CCC1)C(C)(C)C)C(C)(C)C (stereo partly drawn) [Compound 26, (5R,8S)-N-{(1S)-1-[(cyclopropylsulfonyl)carba-moyl]cyclohex-3-en-1-yl}-7-[(2S)-2-{[(2S)-2-{[(1-isopropylpiperidin-2-yl)carbonyl]amino}-3,3-dimethylbutanoyl]amino}-3,3-dimethylbutanoyl]-10,10-dimethyl-7-azadispiro[3.0.4.1]decane-8-carboxamide] | 2950
2 |  | CC(C)(C)[C@H](NC(=O)[C@@H](NC(=O)C1CCCCN1CCF)C1CCCCC1)C(=O)N1C[C@]2(C[C@H]1C(=O)N[C@]1(C(=O)NS(=O)(=O)C3CC3)CC=CCC1)C(C)(C)C21CCC1 (stereo partly drawn) [Compound 27, (5R,8S)-7-[(2S)-2-{[(2S)-2-cyclohexyl-2-({[1-(2-fluoroethyl)piperidin-2-yl]carbonyl}amino)acetyl]amino}-3,3-dimethylbutanoyl]-N-{(1S)-1-[(cyclopropylsulfonyl)carba-moyl]cyclohex-3-en-1-yl}-10,10-dimethyl-7-azadispiro[3.0.4.1]decane-8-carboxamide] | 2850
3 |  | CC(C)(C)[C@H](NC(=O)C1CCCCN1CCF)C(=O)N[C@H](C(=O)N1C[C@]2(C[C@H]1C(=O)N[C@]1(C(=O)NS(=O)(=O)C3CC3)CC=CCC1)C(C)(C)C21CCC1)C(C)(C)C (stereo partly drawn) [Compound 28, (5R,8S)-N-{(1S)-1-[(cyclopropylsulfonyl)carba-moyl]cyclohex-3-en-1-yl}-7-[(2S)-2-{[(2S)-2-({[1-(2-fluoroethyl)piperidin-2-yl]carbonyl}amino)-3,3-dimethylbutanoyl]amino}-3,3-dimethylbutanoyl]-10,10-dimethyl-7-azadispiro[3.0.4.1]decane-8-carboxamide] | 3150
4 |  | C=C[C@@H]1C[C@]1(NC(=O)[C@@H]1C[C@@]2(CN1C(=O)[C@@H](NC(=O)[C@@H](NC(=O)[C@@H]1CCCCN1CCF)C1CCCCC1)C(C)(C)C)C(C)(C)C21CCC1)C(=O)NS(=O)(=O)C1CC1 [Compound 29, (5R,8S)-7-[(2S)-2-{[(2S)-2-cyclohexyl-2-({[(2S)-1-(2-fluoroethyl)piperidin-2-yl]carbonyl}amino)acetyl]amino}-3,3-dimethylbutanoyl]-N-{(1R,2S)-1-[(cyclopropylsulfonyl)carba-moyl]-2-vinylcyclopropyl}-10,10-dimethyl-7-azadispiro[3.0.4.1]decane-8-carboxamide] | 1
5 | 8 | C=C[C@@H]1C[C@]1(NC(=O)[C@@H]1C[C@@]2(CN1C(=O)[C@@H](NC(=O)N[C@H](C(=O)N(C)C)C(C)(C)C)C(C)(C)C)C(C)(C)C21CCC1)C(=O)NS(=O)(=O)C1CC1 [Compound 30, (5R,8S)-N-{(1R,2S)-1-[(cyclopropylsulfonyl)carba-moyl]-2-vinylcyclopropyl}-7-[(2S)-2-({[(1S)-1-(dimethylcarbamoyl)-2,2-dimethylpropyl]carbamoyl}amino)-3,3-dimethylbutanoyl]-10,10-dimethyl-7-azadispiro[3.0.4.1]decane-8-carboxamide] | 
6 | 15 | C=C[C@@H]1C[C@]1(NC(=O)[C@@H]1C[C@@]2(CN1C(=O)[C@@H](NC(=O)N[C@H](C(=O)N1CCOCC1)C(C)(C)C)C(C)(C)C)C(C)(C)C21CCC1)C(=O)NS(=O)(=O)C1CC1 [Compound 31, (5R,8S)-N-{(1R,2S)-1-[(cyclopropylsulfonyl)carba-moyl]-2-vinylcyclopropyl}-7-[(2S)-2-({[(1S)-2,2-dimethyl-1-(morpholin-4-ylcarbonyl)propyl]carbamoyl}amino)-3,3-dimethylbutanoyl]-10,10-dimethyl-7-azadispiro[3.0.4.1]decane-8-carboxamide] | 
7 | 30 | C=C[C@@H]1C[C@]1(NC(=O)[C@@H]1C[C@@]2(CN1C(=O)[C@@H](NC(=O)N[C@H](C(=O)NC)C(C)(C)C)C(C)(C)C)C(C)(C)C21CCC1)C(=O)NS(=O)(=O)C1CC1 [Compound 32, (5R,8S)-N-{(1R,2S)-1-[(cyclopropylsulfonyl)carba-moyl]-2-vinylcyclopropyl}-7-[(2S)-2-({[(1S)-2,2-dimethyl-1-(methylcarbamoyl)propyl]carbamoyl}amino)-3,3-dimethylbutanoyl]-10,10-dimethyl-7-azadispiro[3.0.4.1]decane-8-carboxamide] | 
8 | 1400 | C=C[C@@H]1C[C@]1(NC(=O)[C@@H]1C[C@@]2(CN1C(=O)[C@@H](NC(=O)N[C@H](CC(=O)N(C)C)C(C)(C)C)C(C)(C)C)C(C)(C)C21CCC1)C(=O)NS(=O)(=O)C1CC1 [Compound 33, (5R,8S)-N-{(1R,2S)-1-[(cyclopropylsulfonyl)carba-moyl]-2-vinylcyclopropyl}-7-{(2S)-2-[({(1R)-1-[2-(dimethylamino)-2-oxoethyl]-2,2-dimethylpropyl}carbamoyl)amino]-3,3-dimethylbutanoyl}-10,10-dimethyl-7-azadispiro[3.0.4.1]decane-8-carboxamide] | 
9 | 2150 | C=C[C@@H]1C[C@]1(NC(=O)[C@@H]1C[C@@]2(CN1C(=O)[C@@H](NC(=O)N[C@H](CC(=O)N1CCOCC1)C(C)(C)C)C(C)(C)C)C(C)(C)C21CCC1)C(=O)NS(=O)(=O)C1CC1 [Compound 34, (5R,8S)-N-{(1R,2S)-1-[(cyclopropylsulfonyl)carba-moyl]-2-vinylcyclopropyl}-7-[(2S)-2-({[(1R)-2,2-dimethyl-1-(2-morpholin-4-yl-2-oxoethyl)propyl]carbamoyl}amino)-3,3-dimethylbutanoyl]-10,10-dimethyl-7-azadispiro[3.0.4.1]decane-8-carboxamide] | 
10 |  | C=C[C@@H]1C[C@]1(NC(=O)[C@@H]1C[C@@]2(CN1C(=O)[C@@H](NC(=O)[C@@H](N1CCCC1=O)C(C)(C)C)C(C)(C)C)C(C)(C)C21CCC1)C(=O)NS(=O)(=O)C1CC1 [Compound 35, (5R,8S)-N-{(1R,2S)-1-[(cyclopropylsulfonyl)carba-moyl]-2-vinylcyclopropyl}-7-[(2S)-2-{[(2S)-3,3-dimethyl-2-(2-oxopyrrolidin-1-yl)butanoyl]amino}-3,3-dimethylbutanoyl]-10,10-dimethyl-7-azadispiro[3.0.4.1]decane-8-carboxamide] | 9
11 |  | C=C[C@@H]1C[C@]1(NC(=O)[C@@H]1C[C@@]2(CN1C(=O)[C@@H](NC(=O)[C@@H](NC(=O)[C@@H]1CCCCN1C(C)C)C(C)(C)CC)C(C)(C)C)C(C)(C)C21CCC1)C(=O)NS(=O)(=O)C1CC1 [Compound 36, (5R,8S)-N-{(1R,2S)-1-[(cyclopropylsulfonyl)carba-moyl]-2-vinylcyclopropyl}-7-[(2S)-2-{[(2S)-2-({[(2S)-1-isopropylpiperidin-2-yl]carbonyl}amino)-3,3-dimethylpentanoyl]amino}-3,3-dimethylbutanoyl]-10,10-dimethyl-7-azadispiro[3.0.4.1]decane-8-carboxamide] | 1
12 | 45 | C=C[C@@H]1C[C@]1(NC(=O)[C@@H]1C[C@@]2(CN1C(=O)[C@@H](NC(=O)NC13CC4CC(CC(C4)C1)C3)C(C)(C)C)C(C)(C)C21CCC1)C(=O)NS(=O)(=O)C1CC1 [Compound 37, (5R,8S)-7-{(2S)-2-[(adamantan-1-ylcarbamoyl)amino]-3,3-dimethylbutanoyl}-N-{(1R,2S)-1-[(cyclopropylsulfonyl)carba-moyl]-2-vinylcyclopropyl}-10,10-dimethyl-7-azadispiro[3.0.4.1]decane-8-carboxamide] | 
